The values that follow come from paper PMC6399351, “Cationic Intrinsically Disordered Antimicrobial Peptides (CIDAMPs) Represent a New Paradigm of Innate Defense with a Potential for Novel Anti-Infectives” (Scientific Reports, 2019).

In brackets after ≈: the same amount, converted by molar mass. Where two headings read alike, the source gives them in different places. Square brackets hold non-standard residues; d marks the D form. Ends that are not written are not given here. Peptide text beside a SMILES is read from it. * marks the point of attachment. Palmitoyl = CCCCCCCCCCCCCCCC(=O)*; Dap = NC[C@H](N)C(=O)O A value given as a limit tells only on which side of the number the result lay.

Assay [1] has as its system S. aureus ATCC 6538. To be noted: CFU assay.
Assay [2] deals with E. coli ATCC 25922. The assay can be described thus: CO-ADD MIC, broth microdilution (CLSI). It counts as cell-based, Escherichia coli. To be noted: Mueller–Hinton broth, 5 × 10^5 CFU/mL, 18 h 37 °C, by CO-ADD. The source says:
(§1) They were defined as the lowest peptide
(§2) Further details of the screening

In assay [3] the test system is Staphylococcus aureus ATCC 43300. To be noted: MRSA; CLSI, Mueller–Hinton broth, 5 × 10^5 CFU/mL, 18 h 37 °C, by CO-ADD.
Assay [4] has as its system P. aeruginosa ATCC 10145. The following applies: CFU assay, 10 mM NaP, pH 5.5, 0.25% glucose.
In assay [5] the test system is Cryptococcus neoformans ATCC 208821. The assay can be described thus: CO-ADD MIC, antifungal assay (CLSI). It is filed as cell-based. The following applies: Yeast Nitrogen Base broth, 24 h 35 °C, by CO-ADD. Here is the method: (§3) Fungi strains were cultured for 3 days on Yeast Extract-Peptone Dextrose (YPD) agar at 30 °C. A yeast suspension of 1 × 10^6 to 5 × 10^6 cells/mL (as determined by OD530) was prepared from five colonies. These stock suspensions were diluted with Yeast Nitrogen Base (YNB) broth to a final concentration of 2.5 × 10^3 CFU/mL. […] Plates were covered and incubated at 35 °C for 24 h without shaking.

Assay [6] concerns Candida albicans ATCC 90028. Nature of the assay: CO-ADD MIC, antifungal assay (CLSI). It is filed as cell-based. To be noted: Yeast Nitrogen Base broth, 24 h 35 °C, by CO-ADD. Here is the method:
as §3

The subject of assay [7] is Klebsiella pneumonia ATCC 700603. To be noted: MDR strain; CLSI, Mueller–Hinton broth, 5 × 10^5 CFU/mL, 18 h 37 °C, by CO-ADD.
In assay [8] the test system is Pseudomonas aeruginosa ATCC 27853. Nature of the assay: CO-ADD MIC, broth microdilution (CLSI). To be noted: Mueller–Hinton broth, 5 × 10^5 CFU/mL, 18 h 37 °C, by CO-ADD. It counts as cell-based.
From the text: as §1, §2

The test system of assay [9] is Acinetobacter baumannii ATCC 19606. Nature of the assay: CO-ADD MIC, broth microdilution (CLSI). It counts as cell-based. To be noted: Mueller–Hinton broth, 5 × 10^5 CFU/mL, 18 h 37 °C, by CO-ADD.
From the text: as §1, §2

[10] abbreviates: 10 mM NaP, pH 5.5, 0.25% glucose.
Where [11] appears, read: 10 mM NaP, pH 7.0, 0.25% glucose.

Consider `CCCCCCCCCCCCCCCC(=O)NCC(=O)N[C@H](CCCNC(=N)N)C(=O)N[C@H](CCCNC(=N)N)C(=O)NCC(=O)NCC(=O)N[C@H](CCCNC(=N)N)C(=O)NCC(=O)NCC(=O)N[C@H](CCCNC(=N)N)C(=O)NCC(=O)N[C@H](CCCNC(=N)N)C(=O)NCC(=O)N[C@H](CCCNC(=N)N)C(=O)O` [(D)-Pal-GR13] (Palmitoyl-G[dR][dR]GG[dR]GG[dR]G[dR]G[dR]-OH; C-terminus assumed), for which the LD90 in [1] (setting [10]) and in [4] was 0.075 µg/mL in each case. Also, the “LD99 (concentration of peptide which kills 99.0% of inoculum)” value in assay [1] (setting [10]) turned out to be 0.59 µg/mL. The results for the LD100 in assay [1] (setting [10]) and in assay [4] were 75 µg/mL and 0.3 µg/mL, respectively. Also, the “Minimal inhibitory concentration (MIC)” value was 8 µg/mL (≈ 5.02 µM) in assay [2]; 2 µg/mL (≈ 1.26 µM) in assay [3]; 2 µg/mL (≈ 1.26 µM) in assay [5]; 8 µg/mL (≈ 5.02 µM) in assay [6]; not below 32 µg/mL in assay [7]; 16 µg/mL (≈ 10 µM) in assay [8]. In addition, the “Minimal inhibitory concentration (MIC)” value in assay [9] is on record as 8 µg/mL (≈ 5.02 µM).
As for `CCCCCCCCCCCCCCCC(=O)NCC(=O)N[C@@H](CCCNC(=N)N)C(=O)N[C@@H](CCCNC(=N)N)C(=O)NCC(=O)N[C@@H](CO)C(=O)NCC(=O)N[C@@H](CC(C)C)C(=O)NCC(=O)N[C@@H](CCCNC(=N)N)C(=O)N[C@@H](CO)C(=O)N[C@@H](CO)C(=O)N[C@@H](CO)C(=O)N[C@@H](CCCNC(=N)N)C(=O)O` [Pal-HR 1-18-3H3R-GR13] (Palmitoyl-GRRGSGLGRSSSR-OH), the LD90 in assay [1] (setting [10]) was 2.35 µg/mL. Moreover, the “Minimal inhibitory concentration (MIC)” value in assay [2] is given as more than 32 µg/mL; in assay [3], 16 µg/mL (≈ 10.2 µM); in assay [5], 16 µg/mL (≈ 10.2 µM); in [6], more than 32 µg/mL; in [7], more than 32 µg/mL; in [8], more than 32 µg/mL. Moreover, the “Minimal inhibitory concentration (MIC)” value in assay [9] was 16 µg/mL (≈ 10.2 µM).
`CCCCCCCCCCCCCCCC(=O)N[C@@H](CCCNC(=N)N)C(=O)NCC(=O)N[C@@H](CO)C(=O)N[C@@H](CCCNC(=N)N)C(=O)N[C@@H](CO)C(=O)NCC(=O)N[C@@H](CCC(N)=O)C(=O)N[C@@H](CO)C(=O)N[C@@H](CO)C(=O)N[C@@H](CCCNC(=N)N)C(=O)NCC(=O)N[C@@H](CCC(=O)O)C(=O)N[C@@H](CCCNC(=N)N)C(=O)N[C@@H](CCCNC(=N)N)C(=O)NCC(=O)N[C@@H](CO)C(=O)N[C@@H](CO)C(=O)N[C@@H](CO)C(=O)NCC(=O)N[C@@H](CO)C(=O)N[C@@H](CO)C(=O)N[C@@H](CO)C(=O)N[C@@H](CCCNC(=N)N)C(=O)O` [Pal-HR-1-11-3H3R] (Palmitoyl-RGSRSGQSSRGERRGSSSGSSSR-OH) gave an LD90 in [1] (setting [10]) of 0.59 µg/mL. In addition, the “Minimal inhibitory concentration (MIC)” value in [2] is reported as 32 µg/mL (≈ 12.3 µM); in assay [3] it was 32 µg/mL (≈ 12.3 µM); in assay [5], 32 µg/mL (≈ 12.3 µM); in assay [6], 32 µg/mL (≈ 12.3 µM); in assay [7], more than 32 µg/mL; in assay [8], more than 32 µg/mL. For the same compound, the “Minimal inhibitory concentration (MIC)” value in assay [9] is 8 µg/mL (≈ 3.07 µM).
As for `N=C(N)NCCC[C@H](NC(=O)[C@H](CCCNC(=N)N)NC(=O)[C@H](CS)NC(=O)[C@H](CCCNC(=N)N)NC(=O)[C@H](Cc1c[nH]cn1)NC(=O)[C@H](CO)NC(=O)[C@H](CCCNC(=N)N)NC(=O)[C@H](CS)NC(=O)[C@H](CS)NC(=O)[C@H](CCCNC(=N)N)NC(=O)[C@H](Cc1c[nH]cn1)NC(=O)[C@H](Cc1c[nH]cn1)NC(=O)[C@@H](N)CO)C(=O)O` [LCE-3B56-68] (H-SHHRCCRSHRCRR-OH), the LD90 in [1] (setting [10]) was 0.075 µg/mL; in assay [1] (value in molar units) it was 44 nM. In addition, the “Minimal inhibitory concentration (MIC)” value was more than 32 µg/mL in [2]; 32 µg/mL (≈ 18.9 µM) in assay [3]; 8 µg/mL (≈ 4.72 µM) in assay [5]; more than 32 µg/mL in assay [6]; more than 32 µg/mL in [7]; more than 32 µg/mL in [8]. Besides, the “Minimal inhibitory concentration (MIC)” value in assay [9] is listed as more than 32 µg/mL.
On to `CCCCCCCCCCCCCCCC(=O)NCC(=O)N[C@@H](CCCNC(=N)N)C(=O)N[C@@H](CCCNC(=N)N)C(=O)NCC(=O)NCC(=O)N[C@@H](CCCNC(=N)N)C(=O)NCC(=O)NCC(=O)N[C@@H](CCCNC(=N)N)C(=O)O` [Pal-GR9] (Palmitoyl-GRRGGRGGR-OH), for which the LD90 in assay [1] (setting [10]) stood at 1.18 µg/mL. Moreover, the “LD99 (concentration of peptide which kills 99.0% of inoculum)” value in [1] (setting [10]) came to 4.7 µg/mL. For the same compound, the “Minimal inhibitory concentration (MIC)” value is on record as more than 32 µg/mL in assay [2]; 8 µg/mL (≈ 6.86 µM) in assay [3]; more than 32 µg/mL in [5]; more than 32 µg/mL in [6]; more than 32 µg/mL in [7]; more than 32 µg/mL in assay [8]. For the same compound, the “Minimal inhibitory concentration (MIC)” value in assay [9] is reported as more than 32 µg/mL.
With “GRRGSGLGRSSSRGGRGSGSGR [HR 1-18,4H-4R, HR1-18 variant]”, the LD90 in assay [1] (setting [10]) amounted to 150 µg/mL. The LD100 in [1] (setting [10]) is more than 300 µg/mL; in assay [1] (setting [11]), more than 300 µg/mL; in assay [4] it was 0.15 µg/mL. The compound further came in with a max.killing in [1] (setting [11]) of 98.8%. The “Minimal inhibitory concentration (MIC)” value in [2], in [3], in [5], in assay [6], in assay [7] and in assay [8] was more than 32 µg/mL in each case. Moreover, the “Minimal inhibitory concentration (MIC)” value in [9] is given as more than 32 µg/mL.
Take GRRGGRGGRGRGR [GR13]: the LD90 in assay [1] (setting [10]) and in [1] (setting [11]) was 75 µg/mL throughout. In addition, the “Minimal inhibitory concentration (MIC)” value in assay [2], in assay [3], in assay [5], in [6], in assay [7] and in assay [8] was more than 32 µg/mL throughout. In addition, in assay [9], the “Minimal inhibitory concentration (MIC)” value is more than 32 µg/mL.
For `CCCCCCCCCCCCCCCC(=O)NCC(=O)N[C@@H](CN)C(=O)NCC(=O)N[C@@H](CN)C(=O)O` [Pal-G-Dap4] (Palmitoyl-G[Dap]G[Dap]-OH), the LD90 in [1] (setting [10]) stood at 2.35 µg/mL. For the same compound, the “Minimal inhibitory concentration (MIC)” value in [2] was more than 32 µg/mL; in assay [3], 8 µg/mL (≈ 14.7 µM); in assay [5] it was 1 µg/mL (≈ 1.84 µM); in assay [6], 8 µg/mL (≈ 14.7 µM); in assay [7], more than 32 µg/mL; in assay [8] it was more than 32 µg/mL. In addition, the “Minimal inhibitory concentration (MIC)” value in [9] is listed as more than 32 µg/mL.
Turning to `CCCCCCCCCCCCCCCC(=O)N[C@@H](Cc1c[nH]cn1)C(=O)NCC(=O)N[C@@H](CO)C(=O)N[C@@H](CCCNC(=N)N)C(=O)N[C@@H](CO)C(=O)NCC(=O)N[C@@H](CCC(N)=O)C(=O)N[C@@H](CO)C(=O)N[C@@H](CO)C(=O)N[C@@H](CCCNC(=N)N)C(=O)NCC(=O)N[C@@H](CCC(=O)O)C(=O)N[C@@H](CCCNC(=N)N)C(=O)N[C@@H](Cc1c[nH]cn1)C(=O)NCC(=O)N[C@@H](CO)C(=O)N[C@@H](CO)C(=O)N[C@@H](CO)C(=O)NCC(=O)N[C@@H](CO)C(=O)N[C@@H](CO)C(=O)N[C@@H](CO)C(=O)N[C@@H](Cc1c[nH]cn1)C(=O)O` [Pal-HR 1-11] (Palmitoyl-HGSRSGQSSRGERHGSSSGSSSH-OH), the LD90 in assay [1] (setting [10]) is 2.35 µg/mL. Moreover, the “Minimal inhibitory concentration (MIC)” value was more than 32 µg/mL in [2]; 32 µg/mL (≈ 12.6 µM) in [3]; more than 32 µg/mL in assay [5]; more than 32 µg/mL in [6]; more than 32 µg/mL in assay [7]; more than 32 µg/mL in [8]. For the same compound, the “Minimal inhibitory concentration (MIC)” value in [9] was more than 32 µg/mL.
